In PubChem BioAssay AID1259411 (Chemical Carcinogenesis Research Information System (CCRIS), 2018) one finds carcinogen call data, which are given here for 13 molecules.

This data set relates to rodent carcinogenicity bioassays, tumor incidence. Kind of data set: CCRIS carcinogenicity studies. A digest of the protocol:
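NCI-built, expert-reviewed records of carcinogenicity and related test outcomes (mutagenicity, tumor promotion/inhibition) compiled from published and report sources, historical span 1985-2011, not updated.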

Active and inactive are the calls of the source. No rule for the calls is given here.

As to `O=C1OC2(c3ccccc31)c1cc(Br)c(O)c(Br)c1Oc1c2cc(Br)c(O)c1Br`, the carcinogen call is, setting by setting: (Species: MOUSE, Strain/Sex: ICR/FEMALE, Route: DERMAL, Dose: 0, 1 MG IN 0.1 ML DISTILLED WATER 2/WK FOR A MEAN TOTAL DOSE OF 140.1 MG (STUDY DURATION: 18 MO)) “inactive; negative”; (Species: MOUSE, Strain/Sex: ICR/MALE, Route: DERMAL, Dose: 0, 1 MG IN 0.1 ML DISTILLED WATER 2/WK FOR A MEAN TOTAL DOSE OF 140.1 MG (STUDY DURATION: 18 MO)) “inactive; negative”.

Regarding `CCN(CC(F)(F)F)N=O`, the carcinogen call (Species: RAT, Strain/Sex: SPRAGUE-DAWLEY/MALE, Route: GAVAGE, Dose: 7.5, 15, 30, 60 MG/KG IN VEGETABLE OIL 2/WK, Dose: 7.5, 15, 30, 60 MG/KG IN VEGETABLE OIL 2/WK, Tumor Site: Type of Lesion: ESOPHAGUS: CARCINOMA, NASAL CAVITY: SQUAMOUS CELL CARCINOMA) was “active; positive”.

`O[C@@H]1C=Cc2c(cc3ccc4cccc5ccc2c3c45)[C@H]1O`: the carcinogen call (Species: FISH, Strain/Sex: RAINBOW TROUT/MALE,FEMALE, Route: INJECTION, Dose: 0, 0.5, 2, 5 UG INJECTED INTO NEWLY HATCHED SAC-FRY (STUDY DURATION: 9 MO), Dose: 0, 0.5, 2, 5 UG INJECTED INTO NEWLY HATCHED SAC-FRY (STUDY DURATION: 9 MO), Tumor Site: Type of Lesion: LIVER: TUMOR) is “active; positive”.

With `Cn1cc(OCC(O)CNC(C)(C)C)c2ccccc2c1=O` (stereo unspecified), the carcinogen call reads like this: (Species: MOUSE, Strain/Sex: CD-1/FEMALE, Route: GAVAGE, Dose: 0, 3, 10, 30 MG/KG/D FOR 80 WK IN WATER (STUDY DURATION: 80 WK), Dose: 0, 3, 10, 30 MG/KG/D FOR 80 WK IN WATER (STUDY DURATION: 80 WK)) “inactive; negative”; (Species: MOUSE, Strain/Sex: CD-1/MALE, Route: GAVAGE, Dose: 0, 3, 10, 30 MG/KG/D FOR 80 WK IN WATER (STUDY DURATION: 80 WK), Dose: 0, 3, 10, 30 MG/KG/D FOR 80 WK IN WATER (STUDY DURATION: 80 WK)) “inactive; negative”.

Take `CNC(=O)Oc1cc(C)c(N(C)C)c(C)c1`: the carcinogen call is, setting by setting: (Species: MOUSE, Strain/Sex: B6C3F1/FEMALE, Route: ORAL, Dose: 0, 68, 135 PPM IN DIET, TWA, Dose: 0, 68, 135 PPM IN DIET, TWA) “inactive; negative”; (Species: MOUSE, Strain/Sex: B6C3F1/MALE, Route: ORAL, Dose: 0, 327, 654 PPM IN DIET, TWA, Dose: 0, 327, 654 PPM IN DIET, TWA) “inactive; negative”; (Species: RAT, Strain/Sex: OSBORNE-MENDEL/FEMALE, Route: ORAL, Dose: 0, 339, 678 PPM IN DIET, TWA, Dose: 0, 339, 678 PPM IN DIET, TWA) “inactive; negative”; (Species: RAT, Strain/Sex: OSBORNE-MENDEL/MALE, Route: ORAL, Dose: 0, 209, 418 PPM IN DIET, TWA, Dose: 0, 209, 418 PPM IN DIET, TWA) “inactive; negative”.

Turning to `Nc1ccc(O)c(N)c1`, the carcinogen call is, setting by setting: (Species: MOUSE, Strain/Sex: B6C3F1/FEMALE, Route: GAVAGE, Dose: 0, 19, 38 MG/KG IN CORN OIL 5 D/WK FOR 104 WK (STUDY DURATION: 2 YR), Dose: 0, 19, 38 MG/KG IN CORN OIL 5 D/WK FOR 104 WK (STUDY DURATION: 2 YR)) “inactive; negative”; (Species: RAT, Strain/Sex: F344/FEMALE, Route: GAVAGE, Dose: 0, 12.5, 25 MG/KG IN CORN OIL 5 D/WK FOR 104 WK (STUDY DURATION: 2 YR), Dose: 0, 12.5, 25 MG/KG IN CORN OIL 5 D/WK FOR 104 WK (STUDY DURATION: 2 YR)) “inactive; negative”; (Species: RAT, Strain/Sex: F344/MALE, Route: GAVAGE, Dose: 0, 12.5, 25 MG/KG IN CORN OIL 5 D/WK FOR 104 WK (STUDY DURATION: 2 YR)) “inactive; negative”.

`CCC(=O)Oc1ccc2c(c1)CC[C@@H]1[C@@H]2CC[C@]2(C)[C@@H](OC(=O)CC)CC[C@@H]12`: the carcinogen call (Species: MOUSE, Route: SUBCUTANEOUS, Tumor Site: Type of Lesion: MAMMARY GLAND) was “active; positive”.

On to `O=S1(=O)CC=CC1`, for which the carcinogen call reads like this: (Species: MOUSE, Strain/Sex: B6C3F1/FEMALE, Route: GAVAGE, Dose: 0, 384, 768 MG/KG, Dose: 0, 384, 768 MG/KG) “inactive; negative”; (Species: MOUSE, Strain/Sex: B6C3F1/MALE, Route: GAVAGE, Dose: 0, 311, 622 MG/KG, Dose: 0, 311, 622 MG/KG) “inactive; negative”; (Species: RAT, Strain/Sex: OSBORNE-MENDEL/FEMALE, Route: GAVAGE, Dose: 0, 120, 240 MG/KG, Dose: 0, 120, 240 MG/KG) “inactive; negative”; (Species: RAT, Strain/Sex: OSBORNE-MENDEL/MALE, Route: GAVAGE, Dose: 0, 197, 372 MG/KG, Dose: 0, 197, 372 MG/KG) “inactive; negative”.

As to `CO[C@H]1/C=C/O[C@@]2(C)Oc3c(C)c(O)c4c(O)c(c(C=NN5CCN(C)CC5)c(O)c4c3C2=O)NC(=O)/C(C)=C\C=C\[C@H](C)[C@H](O)[C@@H](C)[C@@H](O)[C@@H](C)[C@H](OC(C)=O)[C@@H]1C`, the carcinogen call (Species: MOUSE, Strain/Sex: C3F/FEMALE, Route: ORAL, Dose: 0.01, 0.03 0.06% IN DRINKING WATER WITH 0.05% SODIUM ASCORBATE FOR 60 WK, Tumor Site: Type of Lesion: LIVER: BENIGN TUMOR OR MALIGNANT TUMOR) was “active; positive”.

Regarding `[Cl][Sn][Cl]`, the carcinogen call was “inactive; negative” (Species: MOUSE, Strain/Sex: B6C3F1/FEMALE, Route: ORAL, Dose: 0, 1000, 2000 PPM IN DIET FOR 105 WK (STUDY DURATION: 105 WK), Dose: 0, 1000, 2000 PPM IN DIET FOR 105 WK (STUDY DURATION: 105 WK)); “inactive; negative” (Species: MOUSE, Strain/Sex: B6C3F1/MALE, Route: ORAL, Dose: 0, 1000, 2000 PPM IN DIET FOR 105 WK (STUDY DURATION: 105 WK), Dose: 0, 1000, 2000 PPM IN DIET FOR 105 WK (STUDY DURATION: 105 WK)); “inactive; negative” (Species: RAT, Strain/Sex: F344/FEMALE, Route: ORAL, Dose: 0, 1000, 2000 PPM IN DIET FOR 105 WK (STUDY DURATION: 105 WK), Dose: 0, 1000, 2000 PPM IN DIET FOR 105 WK (STUDY DURATION: 105 WK)); “equivocal” (Species: RAT, Strain/Sex: F344/MALE, Route: ORAL, Dose: 0, 1000, 2000 PPM IN DIET FOR 105 WK (STUDY DURATION: 105 WK), Dose: 0, 1000, 2000 PPM IN DIET FOR 105 WK (STUDY DURATION: 105 WK), Tumor Site: Type of Lesion: THYROID GLAND: C-CELL ADENOMA, C-CELL ADENOMA OR CARCINOMA).

Turning to `CCCCN(CC)N=O`, the carcinogen call is, setting by setting: (Species: MOUSE, Strain/Sex: DBA/MALE,FEMALE, Route: ORAL, Dose: 10 MG/KG/D IN DRINKING WATER (TOTAL MEAN DOSE 2360 MG/KG), Tumor Site: Type of Lesion: FORESTOMACH: SQUAMOUS CELL CARCINOMA) “active; positive”; (Species: RAT, Strain/Sex: WISTAR/MALE, FEMALE, Route: ORAL, Dose: 0, 10 MG/KG/D FOR 4 WK THEN 5 MG/KG/D FOR DURATION OF STUDY (STUDY DURATION: LIFETIME), Tumor Site: Type of Lesion: ESOPHAGUS: CARCINOMA, PAPILLOMA, PHARYNX: PAPILLOMA, ORAL CAVITY: PAPILLOMA, LIVER: ANGIOSARCOMA, HEPATOCELLULAR CARCINO, Tumor Site: Type of Lesion: ESOPHAGUS: CARCINOMA, PAPILLOMA, PHARYNX: PAPILLOMA, ORAL CAVITY: PAPILLOMA, LIVER: ANGIOSARCOMA, HEPATOCELLULAR CARCINO) “active; positive”.

Take `CCSC(=O)N(CC)C1CCCCC1`: the carcinogen call reads like this: (Species: Mouse, Strain/Sex: C57 BL/10JfCD-1/Alpk/Female (50/group), Route: Oral, Dose: 0, 300, 1,000, 3,000 ppm of 98.1% pure cycloate in feed for 18 mo, Dose: 0, 300, 1,000, 3,000 ppm of 98.1% pure cycloate in feed for 18 mo) “inactive; negative”; (Species: Mouse, Strain/Sex: C57 BL/10JfCD-1/Alpk/Male (50/group), Route: Oral, Dose: 0, 300, 1,000, 3,000 ppm of 98.1% pure cycloate in feed for 18 mo, Dose: 0, 300, 1,000, 3,000 ppm of 98.1% pure cycloate in feed for 18 mo) “inactive; negative”.

For `CCOP(=O)(NC(C)C)Oc1ccc(SC)c(C)c1` (stereo unspecified), the carcinogen call by setting is: (Species: Mouse, Strain/Sex: CD-1/Female (50/Group), Route: Oral, Dose: 0, 2, 10, 50 ppm of 89.2-90.5% fenamiphos in diet for 20 mo, study duration 20 mo, Dose: 0, 2, 10, 50 ppm of 89.2-90.5% fenamiphos in diet for 20 mo, study duration 20 mo) “inactive; negative”; (Species: Mouse, Strain/Sex: CD-1/Male (50/Group), Route: Oral, Dose: 0, 2, 10, 50 ppm of 89.2-90.5% fenamiphos in diet for 20 mo, study duration 20 mo, Dose: 0, 2, 10, 50 ppm of 89.2-90.5% fenamiphos in diet for 20 mo, study duration 20 mo) “inactive; negative”; (Species: Rat, Strain/Sex: Strain not specified/Female (50/Group), Route: Oral, Dose: 0, 2, 10, 50 ppm Nemacure (89% fenamiphos) in diet for 2 yr, study duration 2 yr, Dose: 0, 2, 10, 50 ppm Nemacure (89% fenamiphos) in diet for 2 yr, study duration 2 yr) “inactive; negative”; (Species: Rat, Strain/Sex: Strain not specified/Male (50/Group), Route: Oral, Dose: 0, 2, 10, 50 ppm Nemacure (89% fenamiphos) in diet for 2 yr, study duration 2 yr, Dose: 0, 2, 10, 50 ppm Nemacure (89% fenamiphos) in diet for 2 yr, study duration 2 yr) “inactive; negative”.
